Assay results reported in ChEMBL document CHEMBL1201862, “PubChem BioAssay data set” (2004).
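In this assay, cells in 96-well plates receive the compound at five concentrations for 48 hours. Endpoints are linearly interpolated between the surrounding concentrations. The concentration for 50% growth inhibition is given as GI50.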 The source made the active and inactive calls. Cut-off read from the data, not from the text of the source: active = GI50 up to about 1.1 µM and inactive = higher.

Tests used:
Test in all cases: DTP human tumour cell line panel, 48 h
SW-620 = system: SW-620
HOP-62 = system: HOP-62
MDA-N = system: MDA-N
SR = system: SR
SF-539 = system: SF-539
HT-29 = system: HT-29
HCT-15 = system: HCT-15
OVCAR-4 = system: OVCAR-4
HCT-116 = system: HCT-116
SK-MEL-28 = system: SK-MEL-28
COLO 205 = system: COLO 205
MDA-MB-231 = system: MDA-MB-231
PC-3 = system: PC-3
HCC 2998 = system: HCC 2998
786-0 = system: 786-0
NCI-H226 = system: NCI-H226
MOLT-4 = system: MOLT-4
NCI-H460 = system: NCI-H460
RXF 393 = system: RXF 393
A549 = system: A549
TK-10 = system: TK-10
KM12 = system: KM12
SNB-75 = system: SNB-75
Hs-578T = system: Hs-578T
ACHN = system: ACHN
Malme-3M = system: Malme-3M
MCF7 = system: MCF7
LOX IMVI = system: LOX IMVI
OVCAR-5 = system: OVCAR-5
CAKI-1 = system: CAKI-1
M14 = system: M14
EKVX = system: EKVX
IGROV-1 = system: IGROV-1
SF-268 = system: SF-268
SK-OV-3 = system: SK-OV-3
SK-MEL-5 = system: SK-MEL-5
HOP-92 = system: HOP-92
K562 = system: K562
UACC-62 = system: UACC-62
BT-549 = system: BT-549
NCI/ADR-RES = system: NCI/ADR-RES
UO-31 = system: UO-31
A498 = system: A498
OVCAR-3 = system: OVCAR-3
MDA-MB-435 = system: MDA-MB-435
CCRF-CEM = system: CCRF-CEM
DU-145 = system: DU-145
SNB-19 = system: SNB-19
HL-60 = system: HL-60
SK-MEL-2 = system: SK-MEL-2
SN12C = system: SN12C
UACC-257 = system: UACC-257
U-251 = system: U-251
RPMI-8226 = system: RPMI-8226
NCI-H23 = system: NCI-H23
NCI-H522 = system: NCI-H522
SF-295 = system: SF-295

O=C1OCC(O)=C1C(c1ccc(Cl)cc1)c1cc2c(cc1O)OCO2 (stereo not drawn)
GI50 (SW-620): > 100 µM (inactive)
GI50 (HOP-62): > 100 µM (inactive)
GI50 (MDA-N): > 100 µM (inactive)
GI50 (SR): > 100 µM (inactive)
GI50 (SF-539): > 100 µM (inactive)
GI50 (HT-29): > 100 µM (inactive)
GI50 (HCT-15): > 100 µM
GI50 (OVCAR-4): > 100 µM (inactive)
GI50 (HCT-116): > 100 µM (inactive)
GI50 (SK-MEL-28): > 100 µM (inactive)
GI50 (COLO 205): > 100 µM (inactive)
GI50 (MDA-MB-231): > 100 µM (inactive)
GI50 (PC-3): > 100 µM (inactive)
GI50 (HCC 2998): > 100 µM (inactive)
GI50 (786-0): > 100 µM (inactive)
GI50 (NCI-H226): > 100 µM (inactive)
GI50 (MOLT-4): > 100 µM (inactive)
GI50 (NCI-H460): > 100 µM (inactive)
GI50 (RXF 393): > 100 µM (inactive)
GI50 (A549): > 100 µM (inactive)
GI50 (TK-10): > 100 µM (inactive)
GI50 (KM12): > 100 µM (inactive)
GI50 (SNB-75): > 100 µM (inactive)
GI50 (Hs-578T): > 100 µM (inactive)
GI50 (ACHN): > 100 µM (inactive)
GI50 (Malme-3M): > 100 µM (inactive)
GI50 (MCF7): > 100 µM (inactive)
GI50 (LOX IMVI): > 100 µM (inactive)
GI50 (OVCAR-5): > 100 µM (inactive)
GI50 (CAKI-1): > 100 µM (inactive)
GI50 (M14): > 100 µM (inactive)
GI50 (EKVX): > 100 µM (inactive)
GI50 (IGROV-1): > 100 µM (inactive)
GI50 (SF-268): > 100 µM (inactive)
GI50 (SK-OV-3): > 100 µM (inactive)
GI50 (SK-MEL-5): > 100 µM (inactive)
GI50 (HOP-92): > 100 µM (inactive)
GI50 (K562): > 100 µM (inactive)
GI50 (UACC-62): > 100 µM (inactive)
GI50 (BT-549): > 100 µM (inactive)
GI50 (NCI/ADR-RES): > 100 µM (inactive)
GI50 (UO-31): > 100 µM (inactive)
GI50 (A498): > 100 µM (inactive)
GI50 (OVCAR-3): > 100 µM (inactive)
GI50 (MDA-MB-435): > 100 µM (inactive)
GI50 (CCRF-CEM): > 100 µM (inactive)
GI50 (DU-145): > 100 µM (inactive)
GI50 (SNB-19): > 100 µM (inactive)
GI50 (HL-60): > 100 µM (inactive)
GI50 (SK-MEL-2): > 100 µM (inactive)
GI50 (SN12C): > 100 µM (inactive)

CC(=O)OCC1OC(n2c(-c3ccccc3)cc(-c3ccccc3)c(C#N)c2=O)C(OC(C)=O)C(OC(C)=O)C1OC(C)=O (stereo not drawn)
GI50 (RXF 393): 56 µM (inactive)

CCOC(=O)C1=C(Cl)c2cccnc2C1=O
GI50 (SW-620): 30.3 µM (inactive)
GI50 (HOP-62): 32.2 µM (inactive)
GI50 (MDA-N): 34.9 µM (inactive)
GI50 (SR): 11.4 µM (inactive)
GI50 (SF-539): 82.6 µM (inactive)
GI50 (HT-29): 81.7 µM (inactive)
GI50 (UACC-257): 39.7 µM (inactive)
GI50 (HCT-15): 53.7 µM
GI50 (OVCAR-4): > 100 µM (inactive)
GI50 (HCT-116): 27.4 µM (inactive)
GI50 (SK-MEL-28): > 100 µM (inactive)
GI50 (COLO 205): 43.4 µM (inactive)
GI50 (MDA-MB-231): > 100 µM (inactive)
GI50 (PC-3): > 100 µM (inactive)
GI50 (HCC 2998): 61.7 µM (inactive)
GI50 (786-0): 44 µM (inactive)
GI50 (NCI-H226): > 100 µM (inactive)
GI50 (MOLT-4): 34 µM (inactive)
GI50 (NCI-H460): > 100 µM (inactive)
GI50 (RXF 393): > 100 µM (inactive)
GI50 (A549): 55.7 µM (inactive)
GI50 (TK-10): > 100 µM (inactive)
GI50 (KM12): > 100 µM (inactive)
GI50 (SNB-75): 13 µM (inactive)
GI50 (Hs-578T): 27.7 µM (inactive)
GI50 (U-251): 35.6 µM (inactive)
GI50 (RPMI-8226): 87.3 µM (inactive)
GI50 (ACHN): 35.4 µM (inactive)
GI50 (Malme-3M): 31.3 µM (inactive)
GI50 (NCI-H23): 16.4 µM (inactive)
GI50 (MCF7): 38.5 µM (inactive)
GI50 (LOX IMVI): 23.7 µM (inactive)
GI50 (CAKI-1): 54.6 µM (inactive)
GI50 (M14): 54.2 µM (inactive)
GI50 (EKVX): 62.5 µM (inactive)
GI50 (IGROV-1): 52.8 µM (inactive)
GI50 (SF-268): 55.2 µM (inactive)
GI50 (SK-OV-3): > 100 µM (inactive)
GI50 (SK-MEL-5): 53.6 µM (inactive)
GI50 (HOP-92): > 100 µM (inactive)
GI50 (K562): 54.7 µM (inactive)
GI50 (NCI-H522): 86.5 µM (inactive)
GI50 (UACC-62): > 100 µM (inactive)
GI50 (BT-549): 45.4 µM (inactive)
GI50 (NCI/ADR-RES): > 100 µM (inactive)
GI50 (UO-31): > 100 µM (inactive)
GI50 (A498): > 100 µM (inactive)
GI50 (OVCAR-3): 19.8 µM (inactive)
GI50 (MDA-MB-435): 28 µM (inactive)
GI50 (CCRF-CEM): 26.4 µM (inactive)
GI50 (SF-295): 39.4 µM (inactive)
GI50 (DU-145): 21.5 µM (inactive)
GI50 (SNB-19): 53 µM (inactive)
GI50 (HL-60): > 100 µM (inactive)
GI50 (SK-MEL-2): > 100 µM (inactive)
GI50 (SN12C): 52.4 µM (inactive)
